Legend:
[1] = target: TBK1 (Homo sapiens (Human), UniProt Q9UHD2); assay: TR-FRET kinase assay, TBK1; details: read-out: TBK1-IC50; full length recombinant TBK1 2.5 nM, 2x Km ATP, 1 μM peptide, 240 min at 25° C.; geometric mean of minimum four determinations
Chain of TBK1 (Q9UHD2 whole entry): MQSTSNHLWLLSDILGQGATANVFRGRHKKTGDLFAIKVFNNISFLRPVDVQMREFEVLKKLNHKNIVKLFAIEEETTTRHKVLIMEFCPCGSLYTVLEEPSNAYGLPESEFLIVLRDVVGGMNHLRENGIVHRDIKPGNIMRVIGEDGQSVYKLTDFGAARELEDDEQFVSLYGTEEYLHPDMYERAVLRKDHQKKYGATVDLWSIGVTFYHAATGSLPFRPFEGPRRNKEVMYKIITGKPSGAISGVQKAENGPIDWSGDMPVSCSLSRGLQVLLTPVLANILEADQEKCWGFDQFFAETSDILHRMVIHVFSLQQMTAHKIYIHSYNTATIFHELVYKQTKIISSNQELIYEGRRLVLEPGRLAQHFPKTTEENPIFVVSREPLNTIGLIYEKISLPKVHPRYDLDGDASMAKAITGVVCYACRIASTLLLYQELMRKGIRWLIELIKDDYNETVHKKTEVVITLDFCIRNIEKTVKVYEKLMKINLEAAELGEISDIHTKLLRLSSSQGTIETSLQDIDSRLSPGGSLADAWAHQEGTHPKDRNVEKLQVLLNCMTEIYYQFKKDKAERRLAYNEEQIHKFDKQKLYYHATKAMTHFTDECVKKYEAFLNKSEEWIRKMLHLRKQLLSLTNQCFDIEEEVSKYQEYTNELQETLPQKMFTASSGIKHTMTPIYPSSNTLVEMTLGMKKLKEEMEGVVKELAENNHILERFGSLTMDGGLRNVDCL

[2] = target: IKKε (Homo sapiens (Human), UniProt Q14164); assay: TR-FRET kinase assay, IKKε; format: biochemical; details: full length recombinant IKKε 0.3 nM, 2x Km ATP, 1 μM peptide, 240 min at 25° C.; geometric mean of minimum four determinations
Chain of IKKε (Q14164 whole entry): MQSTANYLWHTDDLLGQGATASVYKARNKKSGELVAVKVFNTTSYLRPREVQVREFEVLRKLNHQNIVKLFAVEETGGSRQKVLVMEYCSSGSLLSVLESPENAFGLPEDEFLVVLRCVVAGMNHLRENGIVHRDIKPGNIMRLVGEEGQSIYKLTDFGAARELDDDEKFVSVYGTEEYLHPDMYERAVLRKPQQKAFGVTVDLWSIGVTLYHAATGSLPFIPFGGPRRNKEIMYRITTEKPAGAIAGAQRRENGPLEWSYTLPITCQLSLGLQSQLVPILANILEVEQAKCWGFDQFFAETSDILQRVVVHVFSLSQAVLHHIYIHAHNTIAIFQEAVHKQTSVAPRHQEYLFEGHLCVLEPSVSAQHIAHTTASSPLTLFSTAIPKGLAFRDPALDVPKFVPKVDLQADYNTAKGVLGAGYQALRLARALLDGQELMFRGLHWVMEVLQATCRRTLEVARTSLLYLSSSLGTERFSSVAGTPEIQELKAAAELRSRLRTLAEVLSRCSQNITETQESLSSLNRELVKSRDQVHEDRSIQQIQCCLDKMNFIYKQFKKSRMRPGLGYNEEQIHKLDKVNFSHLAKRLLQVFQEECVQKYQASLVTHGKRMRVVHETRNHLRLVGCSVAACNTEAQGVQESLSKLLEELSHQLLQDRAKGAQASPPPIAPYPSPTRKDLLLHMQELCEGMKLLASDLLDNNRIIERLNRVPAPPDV
Source text: Biological Assay for TBK1 and IKKs:

SMILES | IC50 [1] [µM] | IC50 [2] [µM]
N#Cc1cc(-c2ccnc3[nH]c(C4CC4)cc23)ccc1OC1CCOCC1 [Example 50, 5-(2-cyclopropyl-1H-pyrrolo[2,3-b]pyridin-4-yl)-2-((tetrahydro-2H-pyran-4-yl)oxy)benzonitrile] | 0.651 | 0.449
N#Cc1cc(-c2ncnc3[nH]c(-c4cccc(N5CCOCC5)c4)nc23)ccc1OC1CCOCC1 [Example 211, 5-(8-(3-morpholinophenyl)-9H-purin-6-yl)-2-((tetrahydro-2H-pyran-4-yl)oxy)benzonitrile] | 0.00957 | 0.0253
N#Cc1cc(-c2ccnc3[nH]c(-c4ccc(N5CCOCC5)cc4)cc23)ccc1OC1CCOCC1 [Example 48, 5-(2-(4-morpholinophenyl)-1H-pyrrolo[2,3-b]pyridin-4-yl)-2-((tetrahydro-2H-pyran-4-yl)oxy)benzonitrile] | 0.00326 | 0.0115
N#Cc1cc(-c2ncnc3[nH]c(Nc4cccc(N5CCOCC5)c4)nc23)ccc1OC1CCOCC1 [Example 194, 5-(8-((3-morpholinophenyl)amino)-9H-purin-6-yl)-2-((tetrahydro-2H-pyran-4-yl)oxy)benzonitrile] | 0.298 | 0.564
N#Cc1cc(-c2ccnc3[nH]c(-c4ccc(N5CCOCC5)cc4)cc23)ccc1O[C@@H]1CCN(C(=O)CO)C1 [Example 15, (R)-2-((1-(2-hydroxyacetyl)pyrrolidin-3-yl)oxy)-5-(2-(4-morpholinophenyl)-1H-pyrrolo[2,3-b]pyridin-4-yl)benzonitrile] | 0.00134 | 0.00245
CC(C)Oc1ccc(-c2ccnc3[nH]c(-c4ccc(N5CCOCC5)cc4)cc23)cc1C#N [Example 71, 2-isopropoxy-5-(2-(4-morpholinophenyl)-1H-pyrrolo[2,3-b]pyridin-4-yl)benzonitrile] | 0.0593 | 0.358
N#Cc1cc(-c2ccnc3[nH]c(C(=O)Nc4ccccc4)cc23)ccc1OC1CCOCC1 [Example 61, 4-(3-cyano-4-((tetrahydro-2H-pyran-4-yl)oxy)phenyl)-N-phenyl-1H-pyrrolo[2,3-b]pyridine-2-carboxamide] | 0.312 | 0.112
N#Cc1cc(-c2ncnc3[nH]c(-c4ccc(N5CCN(CC(F)F)CC5)cc4)cc23)ccc1OC1CCNCC1 [Example 265, 5-(6-(4-(4-(2,2-difluoroethyl)piperazin-1-yl)phenyl)-7H-pyrrolo[2,3-d]pyrimidin-4-yl)-2-(piperidin-4-yloxy)benzonitrile] | 0.0162 | 0.0587
COC(C)(C)c1ccc(-c2cc3c(-c4cc(C#N)c(OC5CCOCC5)cn4)ccnc3[nH]2)cc1 [Example 169, 2-(2-(4-(2-Methoxypropan-2-yl)phenyl)-1H-pyrrolo[2,3-b]pyridin-4-yl)-5-((tetrahydro-2H-pyran-4-yl)oxy)isonicotinonitrile] | 0.0048 | 0.0132
N#Cc1cc(-c2ccnc3[nH]c(C4=CCNCC4)cc23)ccc1OC1CCOCC1 [Example 5, 2-((tetrahydro-2H-pyran-4-yl)oxy)-5-(2-(1,2,3,6-tetrahydropyridin-4-yl)-1H-pyrrolo[2,3-b]pyridin-4-yl)benzonitrile] | 0.0298 | 0.0397
N#Cc1cc(-c2ccnc3[nH]c(-c4ccc(N5CCOCC5)cc4)nc23)ccc1OC1CCN(C(=O)CO)CC1 [Example 198, 2-((1-(2-hydroxyacetyl)piperidin-4-yl)oxy)-5-(2-(4-morpholinophenyl)-3H-imidazo[4,5-b]pyridin-7-yl)benzonitrile] | 0.0023 | 0.00342
N#Cc1cc(-c2ncnc3[nH]c(-c4ccc(C(=O)N5CCOCC5)cc4)cc23)ccc1OC1CCN(C(=O)CO)CC1 [Example 160, 2-((1-(2-Hydroxyacetyl)piperidin-4-yl)oxy)-5-(6-(4-(morpholine-4-carbonyl)phenyl)-7H-pyrrolo[2,3-d]pyrimidin-4-yl)benzonitrile] | 0.00132 | 0.00233
COc1cc(-c2cc3c(-c4ccc(OC5CCOCC5)c(C#N)c4)c(F)cnc3[nH]2)ccc1N1CCOCC1 [Example 172, 5-(5-fluoro-2-(3-methoxy-4-morpholinophenyl)-1H-pyrrolo[2,3-b]pyridin-4-yl)-2-((tetrahydro-2H-pyran-4-yl)oxy)benzonitrile] | 0.0302 | 0.26
N#Cc1cc(-c2ncnc3[nH]c(-c4ccc(N5CCOCC5)cc4)nc23)ccc1OCC1CC1 [Example 202, 2-(cyclopropylmethoxy)-5-(8-(4-morpholinophenyl)-9H-purin-6-yl)benzonitrile] | > 1 | > 1
N#Cc1cc(-c2ncnc3[nH]c(-c4ccc(OCCN5CCCC5)cc4)cc23)ccc1N1CC(O)C1 [Example 227, 2-(3-hydroxyazetidin-1-yl)-5-(6-(4-(2-(pyrrolidin-1-yl)ethoxy)phenyl)-7H-pyrrolo[2,3-d]pyrimidin-4-yl)benzonitrile] | 0.0424 | 0.0702

More lines, now with the values ahead:

IC50 [1] [µM] | IC50 [2] [µM] | SMILES
0.00381 | 0.00818 | Cn1cc(-c2cc3c(-c4ccc(OC5CCOCC5)c(C#N)c4)ncnc3[nH]2)cn1 [Example 104, 5-(6-(1-methyl-1H-pyrazol-4-yl)-7H-pyrrolo[2,3-d]pyrimidin-4-yl)-2-((tetrahydro-2H-pyran-4-yl)oxy)benzonitrile]
0.0105 | 0.132 | N#Cc1cc(-c2ccnc3[nH]c(-c4ccc(N5CCOCC5)cc4)cc23)ccc1CN1CCOCC1 [Example 70, 2-(morpholinomethyl)-5-(2-(4-morpholinophenyl)-1H-pyrrolo[2,3-b]pyridin-4-yl)benzonitrile]
> 1 | > 1 | N#Cc1cc(-c2ncnc3[nH]c(-c4ccc(N5CCOCC5)cc4)cc23)ccc1OCC1CC1 [Example 102, 2-(cyclopropylmethoxy)-5-(6-(4-morpholinophenyl)-7H-pyrrolo[2,3-d]pyrimidin-4-yl)benzonitrile]
0.0193 | 0.0347 | N#Cc1cc(-c2ccnc3[nH]c(-c4cc[nH]c(=O)c4)cc23)ccc1OC1CCOCC1 [Example 217, 5-(2-(2-oxo-1,2-dihydropyridin-4-yl)-1H-pyrrolo[2,3-b]pyridin-4-yl)-2-((tetrahydro-2H-pyran-4-yl)oxy)benzonitrile]
0.00153 | 0.00348 | N#Cc1cc(-c2ncnc3[nH]c(-c4ccc(C5CCN(CC(F)F)CC5)cc4)nc23)ccc1OC1CCN(C(=O)CO)CC1 [Example 255, 5-(8-(4-(1-(2,2-difluoroethyl)piperidin-4-yl)phenyl)-9H-purin-6-yl)-2-((1-(2-hydroxyacetyl)piperidin-4-yl)oxy)benzonitrile]
0.043 | 0.12 | CC(C)(O)c1ccc(-c2cc3c(-c4ccc(O[C@@H]5CCNC5)c(C#N)c4)ccnc3[nH]2)cc1 [Example 151, (R)-5-(2-(4-(2-hydroxypropan-2-yl)phenyl)-1H-pyrrolo[2,3-b]pyridin-4-yl)-2-(pyrrolidin-3-yloxy)benzonitrile]
0.0311 | 0.14 | N#Cc1cc(-c2ncnc3[nH]c(-c4ccc(N5CCOCC5)cc4)cc23)ccc1OC1CCNCC1 [Example 218, 5-(6-(4-morpholinophenyl)-7H-pyrrolo[2,3-d]pyrimidin-4-yl)-2-(piperidin-4-yloxy)benzonitrile]

Reference: patent US10072001B2, “Tank-binding kinase inhibitor compounds” (Gilead Sciences, Inc., priority 2014, dated 2018)
